Test results published in the supplement of paper PMC7394473.

Experiments:
Conditions in all cases: 72 h
U2OS [1] = assay: drug GRADE (percent of response due to cell death) (% (0-100)); higher = more death-driven response
Protocol: (§1)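 U2OS cells treated with full dose titrations of drug; live and dead cells counted by STACK microscopy (mKate2 nuclei, SYTOX Green) at 72 h, biological triplicates. GR and FV dose responses were fitted with 4-parameter logistic models (GR lower bound -1). GRADE (0-100) is the rescaled angle of a linear fit of FV versus GR at doses with GR >= 0, giving the percentage of the response due to cell death.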

U2OS [2] = assay: fractional viability (live cells / total cells); higher = less cell death
Protocol: (§2)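 U2OS::Nuc-mKate2 cells seeded in 96-well plates and treated with eight- to ten-point half-log or log dilutions of drug in the presence of 50 nM SYTOX Green. Live (mKate2+) and dead (SYTOX+) cells were counted by IncuCyte STACK live-cell microscopy at 72 h; biological triplicates. GR is the normalised growth-rate inhibition value (Hafner 2016; 1 = untreated growth, <0 = population shrinking). FV is live/(live+dead) cells, not normalised.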

U2OS [3] = assay: FV IC50 (concentration giving fractional viability 0.5); higher = less potent killing
Protocol: as §1

U2OS [4] = assay: GRmin (fitted minimal GR value at highest effect) (GR value (dimensionless)); higher = less efficacious
Protocol: as §1

U2OS [5] = assay: GR50 (concentration giving GR = 0.5)
Protocol: as §1

U2OS [6] = assay: normalized growth rate inhibition value (GR) relative to untreated cells (GR value (dimensionless, 1 = untreated growth)); higher = less growth inhibition
Protocol: as §2

CCNC(=O)c1noc(-c2cc(C(C)C)c(O)cc2O)c1-c1ccc(CN2CCOCC2)cc1 [Luminespib]
drug GRADE (U2OS [1]): 17.6 | fractional viability (U2OS [2]; 0.000100578 µM): 0.99 | fractional viability (U2OS [2]; 0.000317827 µM): 0.99 | fractional viability (U2OS [2]; 0.00100433 µM): 0.989 | fractional viability (U2OS [2]; 0.00317369 µM): 0.983 | fractional viability (U2OS [2]; 0.0100289 µM): 0.844 | fractional viability (U2OS [2]; 0.0316912 µM): 0.419 | fractional viability (U2OS [2]; 0.100144 µM): 0.436 | fractional viability (U2OS [2]; 0.316456 µM): 0.464 | fractional viability (U2OS [2]; 1 µM): 0.442 | FV IC50 (U2OS [3]): 0.0186 µM | GRmin (U2OS [4]): -0.319 | GR50 (U2OS [5]): 0.00564 µM | normalized growth rate inhibition value (U2OS [6]; 0.000100578 µM): 0.869 | normalized growth rate inhibition value (U2OS [6]; 0.000317827 µM): 0.878 | normalized growth rate inhibition value (U2OS [6]; 0.00100433 µM): 0.876 | normalized growth rate inhibition value (U2OS [6]; 0.00317369 µM): 0.809 | normalized growth rate inhibition value (U2OS [6]; 0.0100289 µM): -0.00384 | normalized growth rate inhibition value (U2OS [6]; 0.0316912 µM): -0.331 | normalized growth rate inhibition value (U2OS [6]; 0.100144 µM): -0.365 | normalized growth rate inhibition value (U2OS [6]; 0.316456 µM): -0.239 | normalized growth rate inhibition value (U2OS [6]; 1 µM): -0.331

CC(C)C[C@@H](C=O)NC(=O)[C@H](CC(C)C)NC(=O)[C@H](CC(C)C)NC(=O)OCc1ccccc1 [MG-132]
drug GRADE (U2OS [1]): 13.5 | fractional viability (U2OS [2]; 0.01 µM): 0.973 | fractional viability (U2OS [2]; 0.0316 µM): 0.977 | fractional viability (U2OS [2]; 0.1 µM): 0.979 | fractional viability (U2OS [2]; 0.316 µM): 0.974 | fractional viability (U2OS [2]; 1 µM): 0.929 | fractional viability (U2OS [2]; 3.16 µM): 0.226 | fractional viability (U2OS [2]; 10 µM): 0.00177 | fractional viability (U2OS [2]; 31.6 µM): 0 | FV IC50 (U2OS [3]): 2.24 µM | GRmin (U2OS [4]): -0.949 | GR50 (U2OS [5]): 1.03 µM | normalized growth rate inhibition value (U2OS [6]; 0.01 µM): 1.02 | normalized growth rate inhibition value (U2OS [6]; 0.0316 µM): 1.01 | normalized growth rate inhibition value (U2OS [6]; 0.1 µM): 0.929 | normalized growth rate inhibition value (U2OS [6]; 0.316 µM): 0.9 | normalized growth rate inhibition value (U2OS [6]; 1 µM): 0.524 | normalized growth rate inhibition value (U2OS [6]; 3.16 µM): -0.442 | normalized growth rate inhibition value (U2OS [6]; 10 µM): -0.885 | normalized growth rate inhibition value (U2OS [6]; 31.6 µM): -0.93

C=CCn1c(=O)c2cnc(Nc3ccc(N4CCN(C)CC4)cc3)nc2n1-c1cccc(C(C)(C)O)n1 [MK1775]
drug GRADE (U2OS [1]): 40.7 | fractional viability (U2OS [2]; 0.01 µM): 0.978 | fractional viability (U2OS [2]; 0.0316 µM): 0.977 | fractional viability (U2OS [2]; 0.1 µM): 0.948 | fractional viability (U2OS [2]; 0.316 µM): 0.725 | fractional viability (U2OS [2]; 1 µM): 0.294 | fractional viability (U2OS [2]; 3.16 µM): 0.125 | fractional viability (U2OS [2]; 10 µM): 0.0517 | fractional viability (U2OS [2]; 31.6 µM): 0.0225 | FV IC50 (U2OS [3]): 0.584 µM | GRmin (U2OS [4]): -0.689 | GR50 (U2OS [5]): 0.156 µM | normalized growth rate inhibition value (U2OS [6]; 0.01 µM): 1.15 | normalized growth rate inhibition value (U2OS [6]; 0.0316 µM): 1.03 | normalized growth rate inhibition value (U2OS [6]; 0.1 µM): 0.664 | normalized growth rate inhibition value (U2OS [6]; 0.316 µM): 0.061 | normalized growth rate inhibition value (U2OS [6]; 1 µM): -0.346 | normalized growth rate inhibition value (U2OS [6]; 3.16 µM): -0.56 | normalized growth rate inhibition value (U2OS [6]; 10 µM): -0.681 | normalized growth rate inhibition value (U2OS [6]; 31.6 µM): -0.762

CCOc1cc2ncc(C#N)c(Nc3ccc(OCc4ccccn4)c(Cl)c3)c2cc1NC(=O)/C=C/CN(C)C [Neratinib]
drug GRADE (U2OS [1]): 20 | fractional viability (U2OS [2]; 0.000317827 µM): 0.985 | fractional viability (U2OS [2]; 0.00100433 µM): 0.987 | fractional viability (U2OS [2]; 0.00317369 µM): 0.985 | fractional viability (U2OS [2]; 0.0100289 µM): 0.986 | fractional viability (U2OS [2]; 0.0316912 µM): 0.984 | fractional viability (U2OS [2]; 0.100144 µM): 0.968 | fractional viability (U2OS [2]; 0.316456 µM): 0.933 | fractional viability (U2OS [2]; 1 µM): 0.879 | fractional viability (U2OS [2]; 3.16 µM): 0.189 | FV IC50 (U2OS [3]): 1.97 µM | GR50 (U2OS [5]): 0.346 µM | normalized growth rate inhibition value (U2OS [6]; 0.000317827 µM): 0.803 | normalized growth rate inhibition value (U2OS [6]; 0.00100433 µM): 0.812 | normalized growth rate inhibition value (U2OS [6]; 0.00317369 µM): 0.867 | normalized growth rate inhibition value (U2OS [6]; 0.0100289 µM): 0.776 | normalized growth rate inhibition value (U2OS [6]; 0.0316912 µM): 0.727 | normalized growth rate inhibition value (U2OS [6]; 0.100144 µM): 0.638 | normalized growth rate inhibition value (U2OS [6]; 0.316456 µM): 0.457 | normalized growth rate inhibition value (U2OS [6]; 1 µM): 0.255 | normalized growth rate inhibition value (U2OS [6]; 3.16 µM): -0.534

O=C(Nc1ccc([N+](=O)[O-])cc1Cl)c1cc(Cl)ccc1O [Nicolsamide]
drug GRADE (U2OS [1]): 29.4 | fractional viability (U2OS [2]; 0.01 µM): 0.98 | fractional viability (U2OS [2]; 0.0316 µM): 0.975 | fractional viability (U2OS [2]; 0.1 µM): 0.979 | fractional viability (U2OS [2]; 0.316 µM): 0.942 | fractional viability (U2OS [2]; 1 µM): 0.33 | fractional viability (U2OS [2]; 3.16 µM): 0.0377 | fractional viability (U2OS [2]; 10 µM): 0.0138 | fractional viability (U2OS [2]; 31.6 µM): 0.0218 | FV IC50 (U2OS [3]): 0.803 µM | GRmin (U2OS [4]): -0.791 | GR50 (U2OS [5]): 0.347 µM | normalized growth rate inhibition value (U2OS [6]; 0.01 µM): 0.975 | normalized growth rate inhibition value (U2OS [6]; 0.0316 µM): 1.01 | normalized growth rate inhibition value (U2OS [6]; 0.1 µM): 0.934 | normalized growth rate inhibition value (U2OS [6]; 0.316 µM): 0.557 | normalized growth rate inhibition value (U2OS [6]; 1 µM): -0.319 | normalized growth rate inhibition value (U2OS [6]; 3.16 µM): -0.722 | normalized growth rate inhibition value (U2OS [6]; 10 µM): -0.81 | normalized growth rate inhibition value (U2OS [6]; 31.6 µM): -0.763

Cc1cn(-c2cc(NC(=O)c3ccc(C)c(Nc4nccc(-c5cccnc5)n4)c3)cc(C(F)(F)F)c2)cn1 [Nilotinib]
drug GRADE (U2OS [1]): 27.4 | fractional viability (U2OS [2]; 0.01 µM): 0.984 | fractional viability (U2OS [2]; 0.0316 µM): 0.986 | fractional viability (U2OS [2]; 0.1 µM): 0.98 | fractional viability (U2OS [2]; 0.316 µM): 0.98 | fractional viability (U2OS [2]; 1 µM): 0.972 | fractional viability (U2OS [2]; 3.16 µM): 0.92 | fractional viability (U2OS [2]; 10 µM): 0.53 | fractional viability (U2OS [2]; 31.6 µM): 0.00617 | FV IC50 (U2OS [3]): 10.3 µM | GR50 (U2OS [5]): 3.89 µM | normalized growth rate inhibition value (U2OS [6]; 0.01 µM): 1.07 | normalized growth rate inhibition value (U2OS [6]; 0.0316 µM): 1.11 | normalized growth rate inhibition value (U2OS [6]; 0.1 µM): 0.977 | normalized growth rate inhibition value (U2OS [6]; 0.316 µM): 0.928 | normalized growth rate inhibition value (U2OS [6]; 1 µM): 0.955 | normalized growth rate inhibition value (U2OS [6]; 3.16 µM): 0.585 | normalized growth rate inhibition value (U2OS [6]; 10 µM): -0.184 | normalized growth rate inhibition value (U2OS [6]; 31.6 µM): -0.875

C[C@@H]1O[C@@H](O[C@H]2C[C@@H](O)[C@]3(CO)[C@H]4[C@H](O)C[C@]5(C)[C@@H](C6=CC(=O)OC6)CC[C@]5(O)[C@@H]4CC[C@]3(O)C2)[C@H](O)[C@H](O)[C@H]1O [Ouabain]
drug GRADE (U2OS [1]): 30.9 | fractional viability (U2OS [2]; 0.01 µM): 0.977 | fractional viability (U2OS [2]; 0.0316 µM): 0.763 | fractional viability (U2OS [2]; 0.1 µM): 0.249 | fractional viability (U2OS [2]; 0.316 µM): 0.165 | fractional viability (U2OS [2]; 1 µM): 0.149 | fractional viability (U2OS [2]; 3.16 µM): 0.142 | fractional viability (U2OS [2]; 10 µM): 0.161 | fractional viability (U2OS [2]; 31.6 µM): 0.141 | FV IC50 (U2OS [3]): 0.0526 µM | GRmin (U2OS [4]): -0.593 | GR50 (U2OS [5]): 0.0164 µM | normalized growth rate inhibition value (U2OS [6]; 0.01 µM): 0.661 | normalized growth rate inhibition value (U2OS [6]; 0.0316 µM): 0.148 | normalized growth rate inhibition value (U2OS [6]; 0.1 µM): -0.42 | normalized growth rate inhibition value (U2OS [6]; 0.316 µM): -0.554 | normalized growth rate inhibition value (U2OS [6]; 1 µM): -0.569 | normalized growth rate inhibition value (U2OS [6]; 3.16 µM): -0.6 | normalized growth rate inhibition value (U2OS [6]; 10 µM): -0.579 | normalized growth rate inhibition value (U2OS [6]; 31.6 µM): -0.629

Cc1[nH]c2ccccc2c1CCNCc1ccc(/C=C/C(=O)NO)cc1 [Panobinostat]
drug GRADE (U2OS [1]): 55.3 | fractional viability (U2OS [2]; 0.01 µM): 0.983 | fractional viability (U2OS [2]; 0.0316 µM): 0.984 | fractional viability (U2OS [2]; 0.1 µM): 0.979 | fractional viability (U2OS [2]; 0.316 µM): 0.933 | fractional viability (U2OS [2]; 1 µM): 0.685 | fractional viability (U2OS [2]; 3.16 µM): 0.271 | fractional viability (U2OS [2]; 10 µM): 0.0583 | fractional viability (U2OS [2]; 31.6 µM): 0.00906 | FV IC50 (U2OS [3]): 1.67 µM | GRmin (U2OS [4]): -0.832 | GR50 (U2OS [5]): 0.383 µM | normalized growth rate inhibition value (U2OS [6]; 0.01 µM): 1.04 | normalized growth rate inhibition value (U2OS [6]; 0.0316 µM): 1.05 | normalized growth rate inhibition value (U2OS [6]; 0.1 µM): 0.794 | normalized growth rate inhibition value (U2OS [6]; 0.316 µM): 0.61 | normalized growth rate inhibition value (U2OS [6]; 1 µM): 0.00935 | normalized growth rate inhibition value (U2OS [6]; 3.16 µM): -0.45 | normalized growth rate inhibition value (U2OS [6]; 10 µM): -0.679 | normalized growth rate inhibition value (U2OS [6]; 31.6 µM): -0.831
